Experimental data as given in a melting point compilation (Tetko et al.; mined from patent text by program, amines drawn as free bases though some values may be those of a salt).

SMILES	melting point
CC(Sc1ncnc2[nH]cnc12)c1oc2ccc(Br)cc2c(=O)c1-c1ccccc1 (stereo not given)	234 to 237 °C
ClC(=NNc1ccc(Cl)cc1)c1ccccc1	107 to 108 °C
COc1cc2c(c3c1OC(C)(C)C3)C(c1ccccc1-c1ccncc1)=NC(C)(C)C2	187 to 189 °C
CCOC(=O)COc1cccc2c1C[C@@H](NCc1ccccc1)[C@H](O)C2 (relative stereo)	93 to 97 °C
O=C(c1cccc(Cl)c1)c1cc(F)nc2ccccc12	93.2 °C
CCS(=O)(=O)Nc1ccc(-c2cccc(-c3nc(C(C)C)[nH]c3-c3cccc(C)n3)c2)cc1	123 to 135 °C
CCOC(=O)OC12Oc3cc(C(C)C)ccc3C1(OC(=O)OCC)C(=O)c1ccccc12 (stereo not given)	150 to 153 °C
CCCCc1ncc(/C=C(\Cc2ccc([N+](=O)[O-])cc2)C(=O)O)n1Cc1ccccc1Cl	207 to 208 °C
COc1ccc(C=C2SC(=S)N(CC(=O)O)C2=O)cc1OCc1ccccc1	234 to 239 °C
c1ccc2c(NCCN3CCOCC3)noc2c1	79 to 80 °C
N#Cc1cc2c(s1)-c1ccccc1OC2c1ccccc1 (stereo not given)	138 to 140 °C
COc1ccc(-c2nc(C(N)=O)c(N)nc2-c2ccccc2)cn1	208 to 212 °C
Cc1cc(-n2cccn2)c2cccc(OCc3c(Cl)ccc(S(=O)(=O)N4CCC(CO)CC4)c3Cl)c2n1	138 °C
CN(C)C(=O)c1ccc2ccccc2c1-c1ccccc1	86 to 87 °C
CC(C)C(=O)c1cn(C)cc(-c2cccc(C(F)(F)F)c2)c1=O	104 to 105 °C
CC(=O)c1cc(CC2CO2)c(OCCCCC#N)cc1O (stereo not given)	86 to 87 °C
Cc1nc[nH]c1CSCCNC1=NCCS(=O)(=O)N1	146 to 147 °C
O=C(Oc1ccccc1N1c2ccccc2S(=O)(=O)c2ccccc21)c1ccccc1	228 to 232 °C
CNC(=O)Nc1cc(CC(C)C)ccc1-c1ccccc1S(=O)(=O)Nc1onc(C)c1C	172 to 174 °C
CC(=O)NC1C(OCc2ccccc2)OC(COCc2ccccc2)C(OCc2ccccc2)C1OCC(O)CO (stereo not given)	165 to 166 °C
N#CCCNC(=O)c1n[nH]cc1NC(=O)C1CCCC1	180 to 181 °C
CC(C)(C)OC(=O)C1Cc2ccccc2CN1C(=O)CBr (stereo not given)	92 to 95 °C
Clc1cc(Cc2c(Cl)cccc2Cl)nc(Cl)n1	106 to 107 °C
CCOc1nn(Cc2ccc(OCc3coc(-c4ccccc4)n3)cc2)cc1CCC(=O)O	135 to 136 °C
CCN1C(=O)C(C)(C)C(=O)N(C)c2cc(CN(CCn3ccc4oc(C)cc4c3=O)c3cccc4ncccc34)ccc21	166 to 168 °C

SMILES	melting point
CS(=O)(=O)c1ccc(-c2nn(CC3CC3)c(=O)cc2-c2ccc(F)cc2)cc1	124 °C
CN(C)C=C(C#N)C(=O)c1cccc(Oc2ccccc2)c1	80 to 82 °C
O=C(CCc1ccccc1)C(Cc1ccccc1)C(=O)CCc1ccccc1	74 to 75 °C
O=c1[nH]c2cc(Cl)c(Cl)cc2nc1Cl	> 300 °C
CC(=O)Oc1ccc(-c2nn(C3CCCC3)c3c(F)cccc23)cc1	90 to 91 °C
COC(=O)c1ccc(OCC(C)NCC(O)c2cccc(Cl)c2)cc1 (stereo not given)	99 to 101 °C
CC(C)N(C[C@@H]1CCC[C@H](CN(C(=O)Nc2ccc(N(C)C)cc2)C(C)C)C1)C(=O)Nc1ccc(N(C)C)cc1	139 to 141 °C
CCOC(=O)NCC(=O)c1ccc(OCC(=O)OC)cc1	128 to 129 °C
CNC(=NS(C)(=O)=O)NCCSCc1csc(CN(C)C)n1	95 to 97 °C
O=C(OCc1ccccc1)C1CC(=C2NC(=O)N(c3ccccc3)C2=O)c2ccc(Cl)cc2N1 (stereo not given)	> 220 °C
CCCCc1ccc(N)c(C(=O)C(=O)OC(=O)C(=O)c2cc(CCCC)ccc2N)c1	218 to 220 °C
CCCn1c(=O)c2[nH]c(C(C)(C)C)nc2n(CCN(C)C(C)=O)c1=O	149 to 152 °C
Cc1cc(O)c(F)cc1Br	44 to 46 °C
Cc1cncc(C)c1-c1c(C)cc(N=C(c2ccccc2)c2ccccc2)cc1C	44 to 45 °C
CS(=O)(=O)N1CCC(C2c3ccccc3C=Cc3ccccc32)CC1	260 to 268 °C
CCOCOC1=C(c2cc(C)ccc2C)C(=O)NC12CCN(OC)CC2	150 to 152 °C
CC(=NO)c1ccc(N2CC(CO)OC2=O)cc1 (stereo not given)	190 °C
O=C1SCc2c(Cl)c(Cl)c(Cl)c(Cl)c21	181 to 183 °C
CCC1Oc2cccc3nc4c(c(c23)NC1=O)CCCC4 (stereo not given)	182 to 183 °C
COCC1OC(n2cnc3c(NC4CCCC4)ncnc32)C(O)C1O (stereo not given)	164 to 166 °C
O=c1c2c([nH]c3nc(N4CCCCC4)nn13)CCCS2	> 350 °C
Cc1oc(-c2ccccc2)nc1CCOc1ccc(CCl)cc1	88 to 90 °C
O=C(O)C=Cc1cc(Oc2c(Cl)cc(C(F)(F)F)cc2Cl)ccc1[N+](=O)[O-]	192 °C
COCC1CCN(c2ccc(C#N)c3ccccc23)CC1	96 to 97 °C
CNC(=NS(C)(=O)=O)NCCCCCc1nc(N)nc(NC(N)=NCC(F)(F)F)n1	131 to 133 °C

SMILES	melting point
CCCCCCOC(=O)Oc1ccc(-c2ccc(C#N)cc2)cc1	87.1 to 87.5 °C
CCOC(=O)c1cnc2ccnn2c1O	81 °C
CN1C(=O)CC[C@]2(C)c3ccc(-c4ccc(C(C)(C)C)cc4)cc3CC[C@@H]12	141 to 147 °C
CCOC(=O)C12CCC(=O)N1CC(=O)N2 (stereo not given)	116 °C
COc1ccc2c(c1O)CCN(C=O)C2	172 to 174 °C
CCOC(=O)C(OC)C(=O)Nc1cc(Cl)cc(Cl)c1 (stereo not given)	89.5 to 92.5 °C
OCCC(c1ccccc1)C(O)(c1ccccc1)c1ccc(OCc2ccccc2)cc1 (stereo not given)	109 to 115 °C
C=CCOc1ccc(C(C)=O)c(NC(C)=O)c1	63 to 64 °C
CC(=O)NC(C)(C)c1ccc(CN2CCN(c3ccc(F)cc3)CC2)cc1	104 to 106 °C
O=C1c2ccccc2C(=O)N1CC1=Nc2ccccc2N(Cc2ccccc2)C(=O)C1	186 °C
c1ccc(CSc2nc3sccn3n2)cc1	91 to 93 °C
O=C1CC(c2ccc(F)cc2)c2ccc(F)cc21 (stereo not given)	70 to 73 °C
Cn1c(=O)c2c(nc(CCc3cccc(N)c3)n2C)n(C)c1=O	158 to 160 °C
COC(=O)c1ccc2c(c1)SC(c1ccccc1)C(c1ccc3c(c1)NC(=O)CO3)=C2 (stereo not given)	217 to 219 °C
C=C(C)OC(=O)N1C(=O)[C@H](C)Nc2cc(Cl)ccc21	158 to 159 °C
CCCCCCCSc1nn2c(=O)c(C)c(O)nc2s1	141 to 143 °C
Cc1c(-c2cc([N+](=O)[O-])c(F)cc2F)ncnc1C(F)F	85 to 86 °C
CCOC(=O)c1cc(=O)c2c(ccc3nc(C(=O)OC)cc(Cl)c32)o1	193 °C
COc1ccc(N2CCN(c3c(C)c(C)c4c(c3C)C(O)(c3ccsc3)C(C)(C)O4)CC2)cc1 (stereo not given)	131 to 133 °C
CCN(CC)CCN1CCN(CCCN2CCCCC2)C1=C(C#N)C#N	78 to 80 °C
O=C(O)CCc1cc(C(=O)c2cccc(C(=O)O)c2)ccc1O	197 to 200 °C
Cc1c(NC(=O)c2ccc(-c3ccc(F)cc3)cc2)ccc2cc(CN3CCC(CCCC(=O)N4CCCCC4)CC3)cnc12	154 to 156 °C
CC(=S)NCC1CN(c2ccc(NC=O)c(F)c2)C(=O)O1 (stereo not given)	177 to 178 °C
O=C(Cc1ccccc1)c1ccc(C(F)(F)F)cc1	127 to 128 °C
CCN(c1cccc2cc(C(N)=S)[nH]c12)S(=O)(=O)c1cccs1	163 °C

SMILES	melting point
CCCCCCOC(=O)C1=C(C)NN=C(c2ccccc2)C1c1cccc(Cl)c1 (stereo not given)	103 °C
CC(=O)N(CCCC(=NNC(N)=S)c1ccc(F)cc1)C(C)C	155 to 157 °C
Cc1ccc(NC(=O)C(C)C)s1	95 to 97 °C
O=[N+]([O-])c1c(NC2CC2)ncnc1N1CCc2ccccc2CC1	135 to 138 °C
CCc1c(C#N)c(-c2ccc(C#N)cc2)c(C)n1Cc1cnc(Cl)c(CO)c1	126 to 127 °C
C=CCOc1cc(OCc2ccc3ccccc3c2)cc(C(=O)c2nccs2)c1	65 to 67 °C
CN1C(C(=O)Nc2ccccc(O)c2=O)=C(O)c2ccccc2S1(=O)=O	294 to 296 °C
CCCCc1nc2c(N)nc3ccccc3c2n1CCCCS(C)(=O)=O	164 to 165 °C
CC(C)(CO)NC(=O)c1nn(-c2ccc(F)cc2)c2c1C1CCC2CC1	165 to 168 °C
Cc1ccc(N2CSC(=NCC(F)(F)F)N(Cc3ccc(C(F)(F)F)cc3)C2=O)cc1	62 to 63 °C
O=C(NCc1ccc(Cl)cc1)c1cn(-c2ccccc2)c2oc(CCl)cc2c1=O	207 to 209 °C
COc1ncc(Br)cc1C(O)C=Cc1ccc(Cl)c(Cl)c1 (stereo not given)	149 to 150 °C
COC(=O)CON1C(=O)c2ccccc2C1=O	137 to 142 °C
CCOC(=O)C(=O)CC(=O)C=Cc1ccc([N+](=O)[O-])cc1	148 to 154 °C
CC(=NOCCO)c1ccc(-c2ccccc2)cc1	128 to 130 °C
Cc1cc(N(C)CC(=O)N2CCN(Cc3ccc4c(c3)OCO4)CC2)ccc1Oc1ccc([N+](=O)[O-])cn1	142 to 143 °C
COc1ccc2c(c1)CNc1cc(Cl)ccc1O2	111 to 113 °C
COc1cc(CN(O)C(N)=O)ccc1OCc1nc(-c2ccccc2)oc1C	138 to 139 °C
CC1(C)CC(c2ccccn2)c2cc(C(N)=O)ccc2O1 (stereo not given)	96 to 98 °C
CCCC(=O)Nc1n[nH]c2cc(-c3ccc(OC(F)(F)F)cc3)ccc12	234 °C
Nc1ccccc1C(=O)NC1CCN(CCCOc2ccc3c4c(c(=O)oc3c2)CCC4)CC1	269 to 270 °C
CN(C)CCN(C(=O)OC(C)(C)C)C1=NCC(=O)N(C)c2ccccc21	< 35 °C
CC1(C)C(C=C(Cl)Cl)C1C(N)=O (stereo not given)	78 to 81 °C
CSc1cnc(NC2=NCC3(CN4CCC3CC4)O2)cn1 (stereo not given)	155 to 160 °C
CCOc1cc(OCC2CCN(C)CC2)c(F)c(C(Nc2ccc(C(=N)N)cc2)C(=O)O)c1 (racemic)	232 °C
